tested on: zebrafish; assay type: in vivo; conditions: average phenoscore at highest scoring treatment

| Compound | phenoscore category |
| --- | --- |
| C[C@]12CC[C@@H](O)C[C@H]1CC[C@@H]1[C@@H]2CC[C@]2(C)[C@@H](C(=O)CO)CC[C@@H]12 [THDOC, tetrahydrodeoxycorticosterone] | intermediate (intermediate phenoscores (0.51 < x < 0.71)) |

same assay, conditions: co-treatment; in words

| Compound | effect on eASRs caused by HTR6 antagonists |
| --- | --- |
| CCc1[nH]c2ccc(OC)cc2c1CCN(C)C.O=C(O)C(=O)O [EMDT oxalate] | did not suppress eASRs |

same assay, conditions: dutasteride 3.0 μM + progesterone 2.5 μM

| Compound | effect on progesterone's etomidate-like phenotype |
| --- | --- |
| C[C@]12C=CC(=O)N[C@@H]1CC[C@@H]1[C@@H]2CC[C@]2(C)[C@@H](C(=O)Nc3cc(C(F)(F)F)ccc3C(F)(F)F)CC[C@@H]12 [dutasteride] | suppressed |

same assay, conditions: larvae; low-volume acoustic stimulus

| Compound | enhanced acoustic startle response (eASR) phenotype, in words |
| --- | --- |
| CCN(Cc1ccccc1)C(=O)Cn1c(=O)n(C)c2cnc(-c3ccccc3)nc21 [AC 5216] | caused eASRs in vivo |
| CCOC(=O)c1cccc(N)c1 [tricaine] | not all anesthetics caused eASR behaviors |
| O=C(c1ccccn1)c1cnn2c(-c3ccncc3)ccnc12 [ocinaplon] | produced a behavioral profile that resembled the negative |
| FC(F)OC(Cl)C(F)(F)F (centres unmarked) [isoflurane] | not all anesthetics caused eASR behaviors |
| CCC(C)N(C)C(=O)c1cc2ccccc2c(-c2ccccc2Cl)n1 (centres unmarked) [PK 11195] | caused eASRs in vivo |
| COc1ccccc1N1CCN(C(=O)COc2ccc(Cl)cc2Br)CC1 [compound 5801496] | did not cause eASRs in vivo |
| O=C(Nc1c(-c2cccs2)nc2ccccn12)c1ccc(Cl)cc1 [DS2] | did not cause eASRs |
| Fc1ccc2c(CCNCc3cccc(OCC(F)(F)C(F)F)c3)c[nH]c2c1 [idalopirdine] | reproducibly caused eASRs in vivo |
| Oc1noc2c1CCNC2 [THIP, gaboxadol] | did not cause eASRs |
| Cc1cccc(C#Cc2ccccc2)n1 [MPEP] | reproducibly caused eASRs |

same assay, conditions: zebrafish, in vivo

| Compound | Phenoscore | eASR magnitudes in animals treated with M-current ligands | enhanced acoustic startle response (eASR) phenotype, in words |
| --- | --- | --- | --- |
| CCN(CC)CCOC(=O)c1cc(Cl)c(N)cc1OC [SDZ-205557] | 0.07 |  |  |
| O=C(O)/C=C\C(=O)O.c1ccc2nc(N3CCNCC3)ccc2c1 [Quipazine maleate salt] | 0.16 |  |  |
| NC(CCP(=O)(O)O)C(=O)O [L-AP4] | 0.1 |  |  |
| O=C1c2ccccc2C(Cc2ccncc2)(Cc2ccncc2)c2ccccc21 [XE-991] |  | significantly increased |  |
| CN(C)CCCc1cc(C(=O)Nc2ccc(-c3ccncc3)cc2)ccc1O.Cl.Cl [GR 55562 DIHYDROCHLORIDE] | 0.24 |  |  |
| CN(C)CCn1cc(S(=O)(=O)c2cccc(F)c2)c2cccnc21 [WAY 208466] | 0.21 |  |  |
| O=C1CCCN1CC#CCN1CCCC1 [oxotremorine] |  | significantly increased |  |
| COc1cc(CC(C)N)c(OC)cc1I.Cl (centres unmarked) [DOI HYDROCHLORIDE] | 0.1 |  |  |
| CC(N)Cc1c[nH]c2ccc(O)cc12 (stereo not drawn) [alpha-METHYLSEROTONIN] | 0.18 |  |  |
| CSc1ccc2c(c1)C(N1CCN(C)CC1)Cc1ccccc1S2 (centres unmarked) [METHIOTHEPIN] | 0.33 |  |  |
| CN1CC(=O)NC1=NC(=O)Nc1cccc(Cl)c1 [Fenobam] | 0.3 |  |  |
| CCOC(=O)c1cc2c(cn1)[nH]c1ccccc12 [β-CCE] | 0.37 |  |  |
| CCOC(=O)c1c(C)n(Cc2ccco2)c2ccc(OC)cc12 [compound 5943451] | 0.37 |  |  |
| Br.COc1ccc(-c2ccc(=N)n(CCCC(=O)O)n2)cc1 [SR-95531] | 0.21 |  |  |
| CN1CCc2cc3c(cc2[C@H]1[C@@H]1OC(=O)c2c1ccc1c2OCO1)OCO3 [bicuculline (-)] | 0.05 |  |  |
| CCc1c(C(=O)OC)ncc2[nH]c3cc(OC)c(OC)cc3c12 [DMCM] | 0.54 |  |  |
| Cc1[nH]c2ccc(Cl)cc2c1CCN(C)C.O=C(O)C(=O)O [ST 1936 OXALATE] | 0.09 |  |  |
| O=C1N(c2ccccc2)c2ccccc2C1(Cc1ccncc1)Cc1ccncc1 [linopirdine] |  | significantly increased |  |
| CCOC(=O)c1ncn2c1[C@@H]1CCCN1C(=O)c1cc(OC)ccc1-2 [L-655,708] | 0.51 |  |  |
| CC(N)Cc1c[nH]c2ccc(OCc3cccs3)cc12 (centres unmarked) [BW 723C86] | 0.1 |  |  |
| COc1ccc(NC(=O)c2ccc(-c3ccc(-c4noc(C)n4)cc3C)cc2)cc1OCCN(C)C [SB-216641] | 0.11 |  |  |
| NCCc1c[nH]c2c(O)cc(O)cc12 [57-DIHYDROXYTRYPTAMINE] | 0.05 |  |  |
| NC/C=C/C(=O)O [TACA] | 0.07 |  |  |

| Compound | Phenoscore | eASR magnitudes in animals treated with M-current ligands | enhanced acoustic startle response (eASR) phenotype, in words |
| --- | --- | --- | --- |
| O=C([O-])[C@H]1CCCC[C@H]1C(=O)Nc1cc(Cl)cc(Cl)c1.[Na+] [VU 0155041 Na Salt] | 0.11 |  |  |
| N[C@@H](Cn1ccc(=O)n(Cc2ccccc2C(=O)O)c1=O)C(=O)O [UBP 302] | 0.17 |  |  |
| CC1(C)CC(=O)c2c(SCCO)sc(-c3nccs3)c2C1 [TB 21007] | 0.12 |  |  |
| Cc1nccn1CC1CCc2c(c3ccccc3n2C)C1=O.Cl (centres unmarked) [Ondansetron Hydrochloride] | 0.13 |  |  |
| CN1CCc2cc3c(cc2[C@H]1[C@@H]1OC(=O)c2c1ccc1c2OCO1)OCO3 [bicuculline (+)] | 0.23 |  |  |
| COc1ccccc1N1CCN(C(=O)c2ccc(C(=O)c3c(C)cc(C)cc3C)cc2)CC1 [compound 5352629] | 0.48 |  |  |
| Cc1[nH]c2ccc(Cl)cc2c1C1=CCNCC1.Cl [EMD 386088 HYDROCHLORIDE] | 0.15 |  |  |
| O=C(N/N=C/c1ccccc1O)c1ccccc1O [SCS] | 0.04 |  |  |
| CCOC(=O)Nc1ccc(NCc2ccc(F)cc2)nc1N [flupirtine] |  | significantly decreased |  |
| CCCN(CCC)C1CCc2cccc(O)c2C1 (centres unmarked) [8-HYDROXY-DPAT] | 0.49 |  |  |
| NC[C@H](CC(=O)O)c1ccc(Cl)cc1 [R-Baclofen] | 0.26 |  |  |
| Cc1c(OCc2cccc(-c3ccc(C(=O)O)cc3)c2)cc2c(c1C)C(=O)C(C1CCCC1)C2 (centres unmarked) [Biphenylindanone A] | 0.11 |  |  |
| O=C(Nc1ccc(Cl)c(Cl)c1)c1ccc(Cl)cc1Cl [compound 7136301] | 0.42 |  |  |
| COc1ccc2c(c1)c(CCN(C)C)cn2S(=O)(=O)c1ccccc1.O=C(O)C(=O)O [MS 245 OXALATE] | 0.09 |  |  |
| CN(C)C/C=C(\c1ccc(Br)cc1)c1cccnc1.Cl.Cl.O [Zimelidine dihydrochloride monohydrate] | 0.16 |  |  |
| COc1cc(Br)c(OC)c2c1[C@H](CN)C2 [TCB-2] | 0.1 |  |  |
| COc1ccc(S(=O)(=O)Nc2cc(Cl)cc(Cl)c2OC)cc1N1CCNCC1.Cl [SB 399885 hydrochloride] | 0.16 |  |  |
| NCCCC(=O)O [GABA] | 0.21 |  |  |
| Cc1cccc([C@H](C)c2cnc[nH]2)c1C [dexmedetomidine] |  |  | not all anesthetics caused eASR behaviors |
| CNc1cc(NS(=O)(=O)c2ccc(N)cc2)nc(NC)n1 [Ro 04-6790] | 0.11 |  |  |
| Cc1cccc(C#Cc2ccccc2)n1 [MPEP] | 0.73 |  |  |
| O=C(Nc1cnc(Cl)nc1)c1ccc(F)c(F)c1 [ICA-069673] |  | significantly decreased |  |

tested on: human GABAARs (α1β2 and α1β2γ2); assay type: cell-based; conditions: compound at 20 uM then 5 uM GABA; DMSO = 1
Text: To determine if these compounds targeted human GABAARs, we tested them in a fluorescent imaging plate reader (FLIPR) assay on HEK293 cells transfected with α1β2 and α1β2γ2 human GABAAR subtypes. […]. […] While some of the compounds appeared to function in this assay as negative allosteric modulators (NAMs), reductions in fluorescence were likely due to toxicity-induced cell loss (Fig. 2f, Supplementary Table 5).
We used the FLIPR system (Molecular Devices) to quantify GABA-evoked activity of human GABAARs. We chose a membrane potential dye (Molecular Devices) to measure changes in membrane potentials and stably transfected HEK293 cells that expressed α1, β2 and γ2. Since we observed an increase in GABA-evoked responses when transfected with γ2 transiently, we describe the cells as having a low level of γ-subunit expression, indicating heterogeneity of GABAAR compositions in the cell (α1β2 or α1β2γ2). To assay for direct agonists, fluorescence was subtracted pre- and post compound addition. To assay for PAMs, cells were treated with compound at 20 uM and then with 5 uM GABA.

| Compound | Ave Norm FLIPR Score |
| --- | --- |
| Cc1cc(C)n2c(SCc3ccc(C(=O)c4ccccc4)cc3)nnc2n1 [compound 7166683] | -1.302 |
| COc1ccc(S(=O)(=O)N2CCC(C)CC2)cc1Br [compound 6366118] | 14.5 |
| CC(=O)/N=C(/Nc1cccc(C(F)(F)F)c1)Nc1nc(C)cc(C)n1 [compound 5869570] | 15.04 |
| O=S(=O)(Nc1ccc(OCc2ccccc2)cc1)c1ccc2c(c1)OCCO2 [compound 6163607] | -5.679 |
| CC(C)CC(=O)NC(S)=NCc1ccccc1 [compound 6993015] | 23.93 |
| CCCCNc1c(C(=O)OCC)c(C)nc2c1cnn2CC [tracazolate] | 50.14 |
| CC(=O)c1c(C)nc2n(Cc3ccccc3)c3ccccc3n12 [compound 5573728] | 27.62 |
| O=C(Nc1c(C(=O)Nc2ccc(Cl)cc2)cnn1-c1ccccc1)c1ccco1 [compound 5583877] | 36.71 |
| CCC(=O)c1c(C)nc2n(Cc3ccccc3)c3ccccc3n12 [compound 5649824] | 41.41 |
| COc1ccccc1-c1coc2cc(OC(=O)c3cccs3)ccc2c1=O [compound 6645327] | -4.734 |
| COc1cc(OC)cc(C(=O)Nc2ccc(Cl)cc2C(F)(F)F)c1 [compound 6376886] | 32.44 |
| CCOC(=O)Nc1sc(C)c(CC)c1C(=O)OCC [compound 5695025] | 32.27 |
| O=C(Nc1c(C(=O)Nc2ccc(Cl)cc2)cnn1-c1ccccc1)c1ccccc1F [compound 5587256] | -26.37 |
| O=C(Cc1ccc(Cl)cc1)Nc1cccc(C(=O)c2ccccc2)c1 [compound 7100598] | 7.736 |

same assay, conditions: compound at 20 uM then 5 uM GABA; Positive/Negative

| Compound | FLIPR Results |
| --- | --- |
| COc1ccc(S(=O)(=O)N2CCC(C)CC2)cc1Br [compound 6366118] | Positive |
| CC(=O)/N=C(/Nc1cccc(C(F)(F)F)c1)Nc1nc(C)cc(C)n1 [compound 5869570] | Positive |
| CC(C)CC(=O)NC(S)=NCc1ccccc1 [compound 6993015] | Positive |
| CCCCNc1c(C(=O)OCC)c(C)nc2c1cnn2CC [tracazolate] | Positive |
| CC(=O)c1c(C)nc2n(Cc3ccccc3)c3ccccc3n12 [compound 5573728] | Positive |
| O=C(Nc1c(C(=O)Nc2ccc(Cl)cc2)cnn1-c1ccccc1)c1ccco1 [compound 5583877] | Positive |
| CCC(=O)c1c(C)nc2n(Cc3ccccc3)c3ccccc3n12 [compound 5649824] | Positive |
| COc1cc(OC)cc(C(=O)Nc2ccc(Cl)cc2C(F)(F)F)c1 [compound 6376886] | Positive |
| CCOC(=O)Nc1sc(C)c(CC)c1C(=O)OCC [compound 5695025] | Positive |
| O=C(Cc1ccc(Cl)cc1)Nc1cccc(C(=O)c2ccccc2)c1 [compound 7100598] | Positive |

same assay, conditions: in the presence of GABA

| Compound | GABAAR PAM activity in FLIPR, in words |
| --- | --- |
| CCCCNc1c(C(=O)OCC)c(C)nc2c1cnn2CC [tracazolate] | increased fluorescence in the presence of GABA |
